In publication PMC6025622, “A Novel Atypical PKC-Iota Inhibitor, Echinochrome A, Enhances Cardiomyocyte Differentiation from Mouse Embryonic Stem Cells” (Marine Drugs, 2018):

Target: T1, atypical protein kinase C-iota (PKCι) (Homo sapiens, UniProt P41743)
T1 construct: gene PRKCI; full-length protein
T1 sequence (P41743 2-596): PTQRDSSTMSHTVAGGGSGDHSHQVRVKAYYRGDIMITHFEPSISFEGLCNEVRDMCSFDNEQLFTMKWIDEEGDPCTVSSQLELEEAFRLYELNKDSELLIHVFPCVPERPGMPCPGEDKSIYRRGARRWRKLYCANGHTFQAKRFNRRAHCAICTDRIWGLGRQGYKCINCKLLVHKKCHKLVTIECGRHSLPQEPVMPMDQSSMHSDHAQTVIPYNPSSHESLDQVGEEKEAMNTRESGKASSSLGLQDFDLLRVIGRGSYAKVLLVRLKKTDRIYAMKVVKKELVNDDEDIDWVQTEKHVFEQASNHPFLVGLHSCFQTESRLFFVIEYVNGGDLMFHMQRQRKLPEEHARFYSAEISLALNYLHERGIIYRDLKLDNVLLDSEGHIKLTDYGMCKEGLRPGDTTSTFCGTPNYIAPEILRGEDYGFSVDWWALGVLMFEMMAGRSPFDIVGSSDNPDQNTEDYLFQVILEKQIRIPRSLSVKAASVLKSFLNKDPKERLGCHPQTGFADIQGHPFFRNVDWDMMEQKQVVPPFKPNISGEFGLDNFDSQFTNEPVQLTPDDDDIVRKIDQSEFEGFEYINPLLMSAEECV
Assay: surface plasmon resonance, PKCι immobilized by amine coupling; also cell-free kinase assay IC50 […]
Assay type: binding

- Kd: 6.3 nM
Structure (SMILES): CCc1c(O)c(O)c2c(c1O)C(=O)C(O)=C(O)C2=O [Ech A, 6-ethyl-2,3,5,7,8-pentahydroxy-1,4-naphthoquinone]
